{"source": "patent US7582679B2", "about": "“Compositions containing solid ibuprofen concentrates and methods of making solid ibuprofen concentrates” (Pharmaceutics International Incorporated, priority 2006, dated 2009)", "key": {"[1]": {"assay": "Comparative dissolution of hard gelatin capsules, USP apparatus type II, purified water", "format": "physicochemical", "conditions": "size 1 hard gelatin capsule, 200 mg ibuprofen, paddle 50 rpm, 900 mL purified water", "experimental": "Ibuprofen powder (supplied by BASF) was similarly filled manually into size 1 hard gelatin capsules to yield 200 mg ibuprofen per capsule.\nCapsules were tested using a USP dissolution apparatus type II with a paddle speed of 50 rpm and 900 mL of purified water as a dissolution medium."}, "[2]": {"assay": "Angle of repose (flowability of powder)", "format": "physicochemical", "experimental": "The dried granules were lubricated with 0.25% w/w magnesium stearate and compressed using a Piccola 10 station rotary tablet press. The lubricated granules had angle of repose 26.56° compared with ibuprofen powder (supplied by BASF) having an angle of repose 48.01°. The resultant compressed tablets had hardness 6.1 kp and thickness 4.80 mm."}}}
{"smiles": "CC(C)Cc1ccc(C(C)C(=O)O)cc1", "note": "(stereo not shown) [ibuprofen powder, ibuprofen]", "values": [{"measurement": "% dissolution", "setting": "[1]; 10 min", "value": 2.2, "unit": "%"}, {"measurement": "% dissolution", "setting": "[1]; 20 min", "value": 5.9, "unit": "%"}, {"measurement": "% dissolution", "setting": "[1]; 30 min", "value": 9.2, "unit": "%"}, {"measurement": "angle of repose", "setting": "[2]", "value": 48.01, "unit": "°"}]}
